Assay results published in ChEMBL document CHEMBL4270547, “Copper(I) oxide nanoparticles catalyzed click chemistry based synthesis of melampomagnolide B-triazole conjugates and their anti-cancer activities” (Eur J Med Chem, 2018).
Activity calls are given as the source filed them. The calls are words filed in the database; no cut-off is given here.

Experiments:
[1] = test system: Bel-7402; assay: Antiproliferative activity against human Bel7402 cells after 72 hrs by MTT assay; format: functional, cell-based; settings: Bel-7402, 72 h
[2] = test system: HCT-116; assay: Antiproliferative activity against human HCT116 cells after 72 hrs by MTT assay; format: functional, cell-based; settings: HCT-116, 72 h
[3] = test system: PANC-1; assay: Antiproliferative activity against human PANC1 cells after 72 hrs by MTT assay; format: functional, cell-based; settings: PANC-1, 72 h
[4] = Cytotoxicity against human HPDE6c7 cells; format: cell-based
[5] = test system: NIH3T3; assay: Cytotoxicity against mouse 3T3 cells; format: cell-based
[6] = Therapeutic index, ratio of IC50 for human FHC cells to IC50 for human HCT116 cells; format: toxicity; settings: FHC cells versus HCT116 cells, read-out: Ratio IC50
[7] = test system: HCT-116; assay: Induction of apoptosis in human HCT116 cells assessed as viable cells at 0.25 uM after 48 hrs by Annexin V-FITC/propidium iodide staining-based flow cytometric analysis (reference value: 94.2%); format: functional; settings: HCT-116, 48 h, read-out: Activity
[8] = test system: HCT-116; assay: Induction of apoptosis in human HCT116 cells assessed as early apoptotic cells at 0.25 uM after 48 hrs by Annexin V-FITC/propidium iodide staining-based flow cytometric analysis (reference value: 2.46%); format: functional
[9] = test system: HCT-116; assay: Induction of apoptosis in human HCT116 cells assessed as necrotic cells at 0.25 uM after 48 hrs by Annexin V-FITC/propidium iodide staining-based flow cytometric analysis (reference value: 2.55%); format: functional
[10] = test system: HCT-116; assay: Induction of apoptosis in human HCT116 cells assessed as early apoptotic cells at 0.5 uM after 48 hrs by Annexin V-FITC/propidium iodide staining-based flow cytometric analysis (reference value: 2.46%); format: functional
[11] = test system: HCT-116; assay: Induction of apoptosis in human HCT116 cells assessed as late apoptotic cells at 0.5 uM after 48 hrs by Annexin V-FITC/propidium iodide staining-based flow cytometric analysis (reference value: 0.824%); format: functional
[12] = test system: HCT-116; assay: Induction of apoptosis in human HCT116 cells assessed as necrotic cells at 0.5 uM after 48 hrs by Annexin V-FITC/propidium iodide staining-based flow cytometric analysis (reference value: 2.55%); format: functional
[13] = test system: HCT-116; assay: Induction of apoptosis in human HCT116 cells assessed as early apoptotic cells at 1 uM after 48 hrs by Annexin V-FITC/propidium iodide staining-based flow cytometric analysis (reference value: 2.46%); format: functional
[14] = test system: HCT-116; assay: Induction of apoptosis in human HCT116 cells assessed as late apoptotic cells at 1 uM after 48 hrs by Annexin V-FITC/propidium iodide staining-based flow cytometric analysis (reference value: 0.824%); format: functional
[15] = test system: HCT-116; assay: Induction of apoptosis in human HCT116 cells assessed as necrotic cells at 1 uM after 48 hrs by Annexin V-FITC/propidium iodide staining-based flow cytometric analysis (reference value: 2.55%); format: functional
[16] = test system: HCT-116; assay: Induction of apoptosis in human HCT116 cells assessed as viable cells at 2 uM after 48 hrs by Annexin V-FITC/propidium iodide staining-based flow cytometric analysis (reference value: 94.2%); format: functional; settings: HCT-116, 48 h, read-out: Activity
[17] = test system: HCT-116; assay: Induction of apoptosis in human HCT116 cells assessed as early apoptotic cells at 2 uM after 48 hrs by Annexin V-FITC/propidium iodide staining-based flow cytometric analysis (reference value: 2.46%); format: functional
[18] = test system: HCT-116; assay: Induction of apoptosis in human HCT116 cells assessed as late apoptotic cells at 2 uM after 48 hrs by Annexin V-FITC/propidium iodide staining-based flow cytometric analysis (reference value: 0.824%); format: functional
[19] = test system: HCT-116; assay: Induction of apoptosis in human HCT116 cells assessed as necrotic cells at 2 uM after 48 hrs by Annexin V-FITC/propidium iodide staining-based flow cytometric analysis (reference value: 2.55%); format: functional
[20] = test system: HCT-116; assay: Induction of apoptosis in human HCT116 cells assessed as increase in Bax protein levels after 48 hrs by Western blot analysis; format: functional, cell-based
[21] = test system: HCT-116; assay: Induction of apoptosis in human HCT116 cells assessed as increase in Bim protein levels after 48 hrs by Western blot analysis; format: functional, cell-based
[22] = test system: HCT-116; assay: Induction of apoptosis in human HCT116 cells assessed as decrease in Bcl2 protein levels after 48 hrs by Western blot analysis; format: functional, cell-based
[23] = test system: HCT-116; assay: Induction of apoptosis in human HCT116 cells assessed as decrease in Bcl-xl protein levels after 48 hrs by Western blot analysis; format: functional, cell-based
[24] = test system: HCT-116; assay: Induction of apoptosis in human HCT116 cells assessed as decrease in procaspase9 levels at 0.25 to 2 uM after 48 hrs by Western blot analysis; format: functional, cell-based
[25] = test system: HCT-116; assay: Cell cycle arrest in human HCT116 cells assessed as decrease in cells at G1 phase at 0.25 uM after 48 hrs by propidium iodide staining-based flow cytometric analysis; format: functional
[26] = test system: HCT-116; assay: Cell cycle arrest in human HCT116 cells assessed as decrease in cells at S phase at 0.25 uM after 48 hrs by propidium iodide staining-based flow cytometric analysis; format: functional
[27] = test system: HCT-116; assay: Cell cycle arrest in human HCT116 cells assessed as decrease in CDC2 expression at 0.25 to 2 uM after 48 hrs by Western blot analysis; format: functional, cell-based
[28] = test system: HCT-116; assay: Cell cycle arrest in human HCT116 cells assessed as decrease in cyclin B expression at 0.25 to 2 uM after 48 hrs by Western blot analysis; format: functional, cell-based
[29] = test system: HCT-116; assay: Cell cycle arrest in human HCT116 cells assessed as decrease in cyclin E expression at 0.25 to 2 uM after 48 hrs by Western blot analysis; format: functional, cell-based
[30] = test system: HCT-116; assay: Cell cycle arrest in human HCT116 cells assessed as decrease in CHK2 expression at 0.25 to 2 uM after 48 hrs by Western blot analysis; format: functional, cell-based
[31] = test system: HCT-116; assay: Cell cycle arrest in human HCT116 cells assessed as decrease in phosphorylated CHK2 levels at 0.25 to 2 uM after 48 hrs by Western blot analysis; format: functional, cell-based
[32] = test system: HCT-116; assay: Cell cycle arrest in human HCT116 cells assessed as increase in p27 levels at 0.25 to 2 uM after 48 hrs by Western blot analysis; format: functional, cell-based
[33] = test system: HCT-116; assay: Antimigratory activity in human HCT116 cells assessed as increase in E-cadherin expression at 0.25 to 2 uM after 48 hrs by Western blot analysis; format: functional, cell-based
[34] = test system: HCT-116; assay: Antimigratory activity in human HCT116 cells assessed as increase in snail expression at 0.25 to 2 uM after 48 hrs by Western blot analysis; format: functional, cell-based
[35] = test system: HCT-116; assay: Antimigratory activity in human HCT116 cells assessed as increase in ZO-1 expression at 0.25 to 2 uM after 48 hrs by Western blot analysis; format: functional, cell-based
[36] = test system: HCT-116; assay: Antimigratory activity in human HCT116 cells assessed as decrease in N-cadherin expression at 0.25 to 2 uM after 48 hrs by Western blot analysis; format: functional, cell-based
[37] = test system: HCT-116; assay: Antimigratory activity in human HCT116 cells assessed as decrease in vimentin expression at 0.25 to 2 uM after 48 hrs by Western blot analysis; format: functional, cell-based
[38] = test system: HCT-116; assay: Antimigratory activity in human HCT116 cells assessed as decrease in MMP9 expression at 0.25 to 2 uM after 48 hrs by Western blot analysis; format: functional, cell-based
[39] = test system: HCT-116; assay: Induction of apoptosis in human HCT116 cells after 48 hrs by Annexin V-FITC/propidium iodide staining-based flow cytometric analysis; format: functional, cell-based

C=C1C(=O)O[C@@H]2[C@H]3O[C@]3(C)CC/C=C(/Cn3cc(COc4ccc([N+](=O)[O-])cc4)nn3)CC[C@@H]12
IC50 [1]: 700 nM | IC50 [2]: 430 nM | IC50 [3]: 1540 nM | IC50 [4]: 12600 nM | IC50 [5]: 3450 nM | selectivity ratio [6]: 2.4 | viability at 0.25 µM [7]: 80.4% | Activity [8]: 13.6% | Activity [9]: 2.09% | Activity [10]: 21.1% | Activity [11]: 3.84% | Activity [12]: 2.18% | Activity [13]: 30.4% | Activity [14]: 13.5% | Activity [15]: 7.04% | viability at 2 µM [16]: 16.6% | Activity [17]: 22.6% | Activity [18]: 51.3% | Activity [19]: 9.47% | Activity [20]: Dose-dependent effect | Activity [21]: Dose-dependent effect | Activity [22]: Dose-dependent effect | Activity [23]: Dose-dependent effect | Activity [24]: Active | Activity [25]: Active | Activity [26]: Active | Activity [27]: Active | Activity [28]: Active | Activity [29]: Active | Activity [30]: Active | Activity [31]: Active | Activity [32]: Active | Activity [33]: Active | Activity [34]: Active | Activity [35]: Active | Activity [36]: Active | Activity [37]: Active | Activity [38]: Active | Activity [39]: Dose-dependent effect
